These results are taken from ChEMBL document CHEMBL4130461, “New chemotype of selective and potent inhibitors of human delta 24-dehydrocholesterol reductase” (Eur J Med Chem, 2017).

Active and inactive are the calls of the source. The calls are words filed in the database; no cut-off is given here.

For data set [1], the system named is HL-60. Nature of the data set: Intracellular drug accumulation in human HL60 cells at 10 uM incubated for 24 hrs by GC-MS analysis. The data set is classed as ADME, cell-based. To be noted: hl-60, 24 h.
For data set [2], the system named is HL-60. Nature of the data set: Extracellular drug accumulation in human HL60 cells at 10 uM incubated for 24 hrs by GC-MS analysis. It is filed as ADME, cell-based. The conditions noted are these: hl-60, 24 h.
The nature of data set [3]: Drug metabolism in human HL60 cells at 10 uM incubated for 24 hrs by GC-MS analysis. The data set is classed as ADME, cell-based. The conditions noted are these: hl-60, 24 h.
The test system of data set [4] is Mus musculus. Nature of the data set: Induction of desmosterol accumulation in C57BL/6 mouse blood at 500 ug/day, iv dosed daily for 5 days byGC-MS analysis. It is filed as functional.
The test system of data set [5] is Mus musculus. Nature of the data set: Liver toxicity in C57BL/6 mouse assessed as effect on AST levels at 500 ug/day, iv dosed daily for 5 days. It is filed as organism-based. To be noted: in vivo, 120 h.
For data set [6], the system named is Mus musculus. Description: Reduction in cholesterol level in C57BL/6 mouse blood at 500 ug/day, iv dosed daily for 5 days byGC-MS analysis. The data set is classed as functional, organism-based.
In data set [7] the test system is Mus musculus. Nature of the data set: Liver toxicity in C57BL/6 mouse assessed as effect on ALT levels at 500 ug/day, iv dosed daily for 5 days. The data set is classed as organism-based. The conditions noted are these: in vivo, 120 h.
Data set [8] concerns HL-60. Description: Induction of sterol accumulation in human HL60 cells assessed as desmosterol accumulation at 50 uM incubated for 24 hrs by GC-MS analysis. The data set is classed as functional, cell-based.
Data set [9] relates to HL-60. Nature of the data set: cells. To be noted: Homo sapiens.
Description: Cytotoxicity in human HL60 cells by MTT assay
Data set [10] deals with Mus musculus. Description: Acute liver toxicity in C57BL/6 mouse at 500 ug/day, iv dosed daily for 5 days. It is filed as organism-based. The conditions noted are these: in vivo, 120 h.
For data set [11], the system named is HL-60. Description: Induction of sterol accumulation in human HL60 cells assessed as desmosterol accumulation at 1 uM incubated for 24 hrs by GC-MS analysis. It is filed as functional, cell-based.

As to `CC(=O)O[C@H]1CC[C@@]2(C)[C@@H](CC=C3[C@@H]2CC[C@]2(C)[C@@H]([C@H](C)COC=O)CC[C@@H]32)C1`, the Drug uptake turned out to be 1 µM in [1] and 2 µM in [2]. Moreover, the Drug metabolism result in [3] is “Metabolite_Notdetected”. Also, the Activity was 1 µg/mL in [4], “Non-Toxic” in data set [5], “Non-Toxic” in data set [7] and “Non-Toxic” in data set [10]. Moreover, the result in [6], in data set [8] and in data set [11] was Active. In data set [9], the concentration for half-maximal inhibition (IC50) (as a rule, the midpoint of a concentration-inhibition curve) was above 50 µM.
